Experimental data published in PMC5681660, “Reduced hepatitis B and D viral entry using clinically applied drugs as novel inhibitors of the bile acid transporter NTCP” (Scientific Reports, 2017).
Counter-ions that a name gives are not always drawn. Like-named read-outs stand apart in the source and are kept apart here.

Tests used:
[1] = molecular target: T1, human NTCP (Homo sapiens, UniProt Q14973); assay: Screening fluorescent competitive Myrcludex B-FITC binding assay (96-well, 10 µM drug)
T1 sequence (Q14973 1-349): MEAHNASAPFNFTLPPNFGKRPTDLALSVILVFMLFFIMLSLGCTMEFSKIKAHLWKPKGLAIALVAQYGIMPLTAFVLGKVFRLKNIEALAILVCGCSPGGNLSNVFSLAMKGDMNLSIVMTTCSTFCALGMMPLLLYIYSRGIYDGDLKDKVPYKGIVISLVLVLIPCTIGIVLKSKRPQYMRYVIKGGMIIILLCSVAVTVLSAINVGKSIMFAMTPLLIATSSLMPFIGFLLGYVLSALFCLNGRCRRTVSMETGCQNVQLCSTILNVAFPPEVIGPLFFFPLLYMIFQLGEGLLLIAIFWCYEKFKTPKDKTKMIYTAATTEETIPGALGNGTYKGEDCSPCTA

[2] = molecular target: T1, human NTCP; assay: Screening taurocholate uptake assay (96-well, [14C]taurocholate, 10 µM drug)
[3] = Prestwick library screen, Myrcludex B-FITC binding, 10 µM drug
[4] = Prestwick library screen, taurocholate uptake, 10 µM drug
[5] = ranking score beside the functional and binding assay B-scores of the screen
[6] = Prestwick library screen, 10 µM drug, B-score of Myrcludex B-FITC binding
[7] = Prestwick library screen, 10 µM drug, B-score of taurocholate uptake
[8] = combined ranking from functional and binding assay B-scores
[9] = screen, 10 µM drug, Myrcludex B-FITC binding
[10] = combined ranking from functional and binding screening assays
[11] = screen, 10 µM drug, taurocholate uptake

Structure (SMILES): CN(C)CCCN1c2ccccc2CCc2ccc(Cl)cc21 [Clomipramine hydrochloride]
- B-score binding assay [1, 3]: -0.277
- B-score functional assay [2, 4]: 4.061
- Ranking score [2, 5]: 759.266

Structure (SMILES): O=C(CCCN1CCN(c2ccccn2)CC1)c1ccc(F)cc1 [Azaperone]
- B-score binding assay [1, 6]: 0.326
- B-score functional assay [2, 7]: 0.852
- Ranking score [2, 8]: 931.399

Structure (SMILES): O=c1[nH]cnc2c1ncn2[C@H]1CC[C@@H](CO)O1 [Didanosine]
- B-score binding assay [1, 6]: 1.663
- B-score functional assay [2, 7]: 0.086
- Ranking score [2, 8]: 927.069

Structure (SMILES): N=C(N)N1CCc2ccccc2C1 [Debrisoquin sulfate]
- B-score binding assay [1, 6]: 0.059
- B-score functional assay [2, 7]: 2.382
- Ranking score [2, 8]: 932.772

Structure (SMILES): CC(=O)OCC(=O)[C@@]1(O)CC[C@H]2[C@@H]3CCC4=CC(=O)CC[C@]4(C)[C@H]3[C@@H](O)C[C@@]21C [Cortisol acetate]
- B-score binding assay [1, 3]: 0.369
- B-score functional assay [2, 4]: 0.009
- Ranking score [2, 5]: 752.137

Structure (SMILES): CC(C)c1c(CN(C)C(C)Cc2ccccc2)n(C)n(-c2ccccc2)c1=O (stereo not drawn) [Famprofazone]
- B-score binding assay [1, 9]: -0.284
- Ranking score [2, 10]: 376.915
- B-score functional assay [2, 11]: -0.708

Structure (SMILES): CN(N=O)C(=O)N[C@H]1C(O)O[C@H](CO)[C@@H](O)[C@@H]1O (mixture of isomers) [Streptozotocin]
- B-score binding assay [1, 9]: -0.654
- Ranking score [2, 10]: 307.444
- B-score functional assay [2, 11]: -0.84

Structure (SMILES): O=P1(NCCCl)OCCCN1CCCl (stereo not drawn) [Ifosfamide]
- B-score binding assay [1, 9]: -1.438
- Ranking score [2, 10]: 334.739
- B-score functional assay [2, 11]: 0.023

Structure (SMILES): CC(COc1ccccc1)NC(C)C(O)c1ccc(O)cc1 (stereo not drawn) [Isoxsuprine hydrochloride]
- B-score binding assay [1, 6]: 0.408
- B-score functional assay [2, 7]: 0.459
- Ranking score [2, 8]: 888.476

Structure (SMILES): c1ccc(CNc2ncnc3[nH]cnc23)cc1 [Aminopurine, 6-benzyl]
- B-score binding assay [1, 9]: -1.308
- Ranking score [2, 10]: 337.92
- B-score functional assay [2, 11]: -0.027

Structure (SMILES): CC(C)(S)C(N)C(=O)O (racemic) [D,L-Penicillamine]
- B-score binding assay [1, 6]: 0.477
- B-score functional assay [2, 7]: 0.176
- Ranking score [2, 8]: 845.872

Structure (SMILES): CN(C)CCOC(c1ccc(Cl)cc1)c1ccccn1.O=C(O)/C=C\C(=O)O (stereo not drawn) [Carbinoxamine maleate salt]
- B-score binding assay [1, 9]: -1.565
- Ranking score [2, 10]: 433.532
- B-score functional assay [2, 11]: 3.2

Structure (SMILES): C[N+]1(CCCCC[N+]2(C)CCCC2)CCCC1.O=C([O-])C(O)C(O)C(=O)O.O=C([O-])C(O)C(O)C(=O)O [Pentolinium bitartrate]
- B-score binding assay [1, 9]: -0.512
- Ranking score [2, 10]: 451.889
- B-score functional assay [2, 11]: -0.089

Structure (SMILES): CC(=O)N[C@@H](CC(=O)N[C@@H](CCC(=O)O)C(=O)O)C(=O)O [Spaglumic acid]
- B-score binding assay [1, 9]: -0.793
- Ranking score [2, 10]: 411.514
- B-score functional assay [2, 11]: -0.043

Structure (SMILES): CC(C)(CO)[C@@H](O)C(=O)NCCCO [Panthenol (D)]
- B-score binding assay [1, 6]: 0.428
- B-score functional assay [2, 7]: 0.501
- Ranking score [2, 8]: 899.92

Structure (SMILES): CCCN(CCC)S(=O)(=O)c1ccc(C(=O)O)cc1 [Probenecid]
- B-score binding assay [1, 3]: 0.597
- B-score functional assay [2, 4]: -0.194
- Ranking score [2, 5]: 677.591

Structure (SMILES): CCCNC(C)C(=O)Nc1c(C)csc1C(=O)OC (stereo not drawn) [Articaine hydrochloride]
- B-score binding assay [1, 9]: 0.267
- Ranking score [2, 10]: 451.414
- B-score functional assay [2, 11]: -1.04

Structure (SMILES): CCCCC(=O)O[C@H]1CC[C@H]2[C@@H]3CCc4cc(O)ccc4[C@H]3CC[C@]12C [Estradiol Valerate]
- B-score binding assay [1, 3]: 1.969
- B-score functional assay [2, 4]: -0.153
- Ranking score [2, 5]: 776.511

Structure (SMILES): CCC(C)n1ncn(-c2ccc(N3CCN(c4ccc(OCC5COC(Cn6cncn6)(c6ccc(Cl)cc6Cl)O5)cc4)CC3)cc2)c1=O (stereo not drawn) [Itraconazole]
- B-score binding assay [1, 6]: 1.124
- B-score functional assay [2, 7]: 0.058
- Ranking score [2, 8]: 871.813

Structure (SMILES): COc1ccc2cc([C@H](C)C(=O)O)ccc2c1 [Naproxen]
- B-score binding assay [1, 9]: -0.298
- Ranking score [2, 10]: 422.428
- B-score functional assay [2, 11]: -0.433

Structure (SMILES): CC(C[N+](C)(C)C)OC(N)=O (stereo not drawn) [Bethanechol chloride]
- B-score binding assay [1, 6]: 0.661
- B-score functional assay [2, 7]: 1.898
- Ranking score [2, 8]: 1067.05

Structure (SMILES): COC(=O)C1=C(C)NC(C)=C(C(=O)OCCN(C)Cc2ccccc2)C1c1cccc([N+](=O)[O-])c1 (stereo not drawn) [Nicardipine hydrochloride]
- B-score binding assay [1, 9]: -1.032
- Ranking score [2, 10]: 378.616
- B-score functional assay [2, 11]: -0.022

Structure (SMILES): Cc1nnc(NS(=O)(=O)c2ccc(N)cc2)s1 [Sulfamethizole]
- B-score binding assay [1, 6]: 0.555
- B-score functional assay [2, 7]: 1.973
- Ranking score [2, 8]: 1054.65

Structure (SMILES): CN(CCCCCCCCCCN(C)C(=O)Oc1cccc([N+](C)(C)C)c1)C(=O)Oc1cccc([N+](C)(C)C)c1 [Demecarium bromide]
- B-score binding assay [1, 6]: 0.623
- B-score functional assay [2, 7]: 0.13
- Ranking score [2, 8]: 853.475

Structure (SMILES): CCC(=O)[C@@]1(C)[C@H](C)C[C@H]2[C@@H]3CCC4=CC(=O)C=C[C@]4(C)[C@H]3[C@@H](O)C[C@@]21C [Rimexolone]
- B-score binding assay [1, 9]: -0.495
- Ranking score [2, 10]: 362.647
- B-score functional assay [2, 11]: -0.597

Structure (SMILES): CCC(=O)O[C@@H](O[P@](=O)(CCCCc1ccccc1)CC(=O)N1C[C@H](C2CCCCC2)C[C@H]1C(=O)O)C(C)C [Fosinopril]
- B-score binding assay [1, 3]: -0.621
- B-score functional assay [2, 4]: 3.318
- Ranking score [2, 5]: 655.924

Structure (SMILES): CC1CS(=O)(=O)CCN1/N=C/c1ccc([N+](=O)[O-])o1 (stereo not drawn) [Nifurtimox]
- B-score binding assay [1, 9]: -0.222
- Ranking score [2, 10]: 381.366
- B-score functional assay [2, 11]: -0.767

Structure (SMILES): COc1cc(-c2ccc(=O)[nH]n2)ccc1OC(F)F [Zardaverine]
- B-score binding assay [1, 9]: 0.49
- Ranking score [2, 10]: 379.335
- B-score functional assay [2, 11]: -1.701

Structure (SMILES): Cc1cnc(C(=O)NCCc2ccc(S(=O)(=O)NC(=O)NC3CCCCC3)cc2)cn1 [Glipizide]
- B-score binding assay [1, 9]: 0.997
- Ranking score [2, 10]: 412.592
- B-score functional assay [2, 11]: -1.639

Structure (SMILES): CC1CCc2cc(F)cc3c(=O)c(C(=O)O)cn1c23 (stereo not drawn) [Flumequine]
- B-score binding assay [1, 6]: -0.028
- B-score functional assay [2, 7]: 2.117
- Ranking score [2, 8]: 855.599

Structure (SMILES): COc1ccc(C(Cl)=C(c2ccc(OC)cc2)c2ccc(OC)cc2)cc1 [Chlorotrianisene]
- B-score binding assay [1, 6]: 1.19
- B-score functional assay [2, 7]: 0.481
- Ranking score [2, 8]: 983.616

Structure (SMILES): C=CCC1(CC(C)C)C(=O)NC(=O)NC1=O [Butalbital]
- B-score binding assay [1]: 2.017
- B-score functional assay [2]: -0.027
- Ranking score [2]: 849.583

Structure (SMILES): O=C(CCCN1CC=C(n2c(=O)[nH]c3ccccc32)CC1)c1ccc(F)cc1 [Droperidol]
- B-score binding assay [1, 3]: 0.092
- B-score functional assay [2, 4]: 0.035
- Ranking score [2, 5]: 713.526

Structure (SMILES): Nc1ccc(S(=O)(=O)Nc2ncccn2)cc1 [Sulfadiazine]
- B-score binding assay [1, 6]: 1.389
- B-score functional assay [2, 7]: 0.878
- Ranking score [2, 8]: 1074.81

Structure (SMILES): CC[C@H]1OC(=O)[C@H](C)[C@@H](O[C@H]2C[C@@](C)(OC)[C@@H](O)[C@H](C)O2)[C@H](C)[C@@H](O[C@@H]2O[C@H](C)C[C@H](N(C)C)[C@H]2O)[C@](C)(O)C[C@@H](C)C(=O)[C@H](C)[C@@H](O)[C@]1(C)O [Erythromycin]
- B-score binding assay [1, 6]: 0.93
- B-score functional assay [2, 7]: 3.026
- Ranking score [2, 8]: 1129.71

Structure (SMILES): CCOC(=O)[C@@](C)(N)Cc1ccc(O)c(O)c1 [Methyldopate hydrochloride]
- B-score binding assay [1, 6]: 2.397
- B-score functional assay [2, 7]: 0.673
- Ranking score [2, 8]: 1088.5

Structure (SMILES): CCOC(=O)/C=C(C)/C=C/C=C(C)/C=C/c1c(C)cc(OC)c(C)c1C [Etretinate]
- B-score binding assay [1, 3]: -0.079
- B-score functional assay [2, 4]: 0.504
- Ranking score [2, 5]: 712.48
